CO/N=C(\C(=O)Sc1nc2ccccc2s1)c1csc(N)n1
Conditions | solubility (mole fraction)
in 1,2-dichloroethane, 277.83 K | 0.000358
in 1,2-dichloroethane, 282.77 K | 0.000458
in 1,2-dichloroethane, 287.63 K | 0.000619
in 1,2-dichloroethane, 292.84 K | 0.000876
in 1,2-dichloroethane, 297.85 K | 0.00118
in 1,2-dichloroethane, 302.64 K | 0.00154
in THF, 278.4 K | 0.0243
in THF, 283.75 K | 0.0259
in THF, 288.8 K | 0.028
in THF, 293.25 K | 0.0311
in THF, 298.06 K | 0.0352
in THF, 302.95 K | 0.0397
in acetone, 278.32 K | 0.00245
in acetone, 283.31 K | 0.00286
in acetone, 288.15 K | 0.00334
in acetone, 293.2 K | 0.0039
in acetone, 298.54 K | 0.00472
in acetone, 303.28 K | 0.0057
in acetonitrile, 279.45 K | 0.000216
in acetonitrile, 283.46 K | 0.000262
in acetonitrile, 288.45 K | 0.000342
in acetonitrile, 292.98 K | 0.000451
in acetonitrile, 297.47 K | 0.000581
in acetonitrile, 302.45 K | 0.000761
in dichloromethane, 278.6 K | 0.000719
in dichloromethane, 283.64 K | 0.000967
in dichloromethane, 288.46 K | 0.00128
in dichloromethane, 294.03 K | 0.00171
in dichloromethane, 298.71 K | 0.00217
in dichloromethane, 303.44 K | 0.00267

From BigSolDB 2.1
